This is an account of results in PubChem BioAssay (NCI).

What all share (experiment): growth of human tumour cells (NCI), 48 h
The subject of assay [1] is SK-MEL-2 melanoma.
Assay [2] concerns RPMI-8226 leukemia.
In assay [3] the test system is CCRF-CEM leukemia.
Assay [4] deals with HCC-2998 colon.
Assay [5] relates to SK-MEL-5 melanoma.
The test system of assay [6] is SNB-19 CNS.
For assay [7], the system named is NCI/ADR-RES ovarian.
In assay [8] the test system is HOP-92 NSCLC.
In assay [9] the test system is M14 melanoma.
In assay [10] the test system is 786-0 renal.
Assay [11] concerns IGROV1 ovarian.
Assay [12] deals with MOLT-4 leukemia.
In assay [13] the test system is SN12C renal.
The test system of assay [14] is OVCAR-8 ovarian.
In assay [15] the test system is NCI-H23 lung.
For assay [16], the system named is SF-268 CNS.
Assay [17] concerns HL-60(TB) leukemia.
Assay [18] concerns KM12 colon.
Assay [19] concerns COLO 205 colon.

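1) Cells in 96-well plates. 2) Compound, 48 h, 5 concentrations. 3) Linear interpolation between surrounding doses. 4) Unreached endpoint = highest concentration. TGI marks complete inhibition of growth.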 Where only a bound is given, the exact number is not on record here.

With `COc1ccc(-n2c(Cn3nnc(-c4cccnc4)n3)nn(C3OC(COC(=O)c4ccccc4)C(OC(=O)c4ccccc4)C3OC(=O)c3ccccc3)c2=S)cc1` (stereo unspecified), the TGI in assay [1], in [2], in assay [3], in assay [4], in assay [5] and in [6] was above 100 µM each time. Further, the TGI in assay [7], in assay [8], in [9], in [10], in assay [11] and in [12] was above 100 µM each time. Moreover, the TGI in assay [13], in [14], in assay [15], in [16], in [17] and in assay [18] was above 100 µM each time. In assay [19], this compound returned a TGI above 100 µM.

For `Nc1nc(Br)nc2ncn(C3CC(O)C(CO)O3)c12` (stereo unspecified), the TGI in assay [1], in assay [2], in assay [3], in assay [4], in assay [5] and in assay [6] was above 100 µM throughout. Further, the TGI in [7] is above 63.1 µM; in assay [8] it was above 100 µM; in assay [9], 33.4 µM; in assay [10] it was above 100 µM; in assay [11], above 100 µM; in [12], 0.202 µM. Also, the TGI in [13] was above 100 µM; in [14] it was above 100 µM; in [15], above 53 µM; in assay [16], above 100 µM; in [17], 9.35 µM; in assay [18], above 100 µM. In assay [19], this compound yielded a TGI above 100 µM.

Turning to `COc1ccc2c(c1)-c1nc(=O)n(CCCN(C)C)c3ccc([N+](=O)[O-])c(c13)N2`, the TGI in [1] worked out at 27.6 µM; in [2], 0.694 µM; in [3], 3.87 µM; in [4] it was 17.7 µM; in assay [5] it was 4.4 µM; in assay [6], 8.58 µM. For the same compound, the TGI in assay [7] was found to be 10.4 µM; in assay [8], 8.53 µM; in assay [9], 3.69 µM; in [10], 1.94 µM; in [11] it was 12.3 µM; in [12] it was 0.841 µM. The TGI was 13.8 µM in [13]; 19.4 µM in [14]; 4.5 µM in [15]; 17.8 µM in assay [16]; 4.39 µM in assay [17]; 4.02 µM in assay [18]. The compound also returned a TGI in [19] of 18.4 µM.

Turning to `CCC(c1ccc(OC)cc1)C1NC(=S)NC1=O` (stereo unspecified), the TGI in [1], in assay [2], in [3], in [4], in assay [5] and in assay [6] was above 50 µM in each case. Further, the TGI in assay [7], in assay [8], in assay [9], in assay [10], in assay [11] and in assay [12] was above 50 µM throughout. In addition, the TGI in assay [13] was above 50 µM; in assay [14], above 50 µM; in [15] it was above 50 µM; in assay [16] it was above 50 µM; in assay [17], 47.3 µM; in assay [18] it was above 50 µM. Further, in assay [19], the TGI was above 50 µM.

`O=C(CCc1ccc(O)c(O)c1)NCCc1cc(O)c(O)c(O)c1`: the TGI in assay [1] is 50.6 µM; in assay [2] it was above 100 µM; in assay [3], above 100 µM; in assay [4] it was above 100 µM; in assay [5] it was 66.2 µM; in [6], above 100 µM. Moreover, the TGI in assay [7] was 40.9 µM; in assay [8], above 100 µM; in assay [9], 48.1 µM; in assay [10], 32.6 µM; in assay [11], above 100 µM; in assay [12], 46.5 µM. In addition, the TGI was 31.9 µM in [13]; 36.2 µM in assay [14]; 31.3 µM in [15]; above 100 µM in assay [16]; above 100 µM in [17]; above 100 µM in assay [18]. Besides, in [19], the TGI is above 100 µM.

For `COC(=O)c1ccc(C)cc1C1CN=NC12Cc1cc(C)ccc1C2=O` (stereo unspecified), the TGI in [1] was 45.8 µM; in assay [2], 66.2 µM; in assay [3], above 100 µM; in [4] it was above 71.4 µM; in assay [5], 21.6 µM; in assay [6], above 100 µM. The TGI in assay [7] was 47.5 µM; in assay [8], 84.7 µM; in assay [9], 36.9 µM; in assay [10] it was above 92.6 µM; in [11], above 100 µM; in [12], above 86.6 µM. Further, the TGI in [13] is above 87.1 µM; in assay [14], above 100 µM; in [15] it was 66.5 µM; in [16], above 100 µM; in assay [17], 16.3 µM; in [18] it was 44.1 µM. The same compound yielded a TGI in [19] of 19.1 µM.

For the compound `CCCCCCCCCCCCCCCC(=O)Nc1ccn(C2CCC(COP(=O)(O)OCC3OC(n4cc(F)c(=O)[nH]c4=O)CC3OC(C)=O)O2)c(=O)n1` (stereo unspecified), the TGI in [1] is 47.6 µM; in assay [2], 52.9 µM; in [3] it was 19.7 µM; in assay [4] it was above 48.2 µM; in [5], 26.9 µM; in assay [6], 35.2 µM. Further, the TGI in [7] was above 100 µM; in assay [8] it was 66.3 µM; in assay [9] it was 28.1 µM; in [10], above 100 µM; in assay [11] it was above 100 µM; in assay [12], 30.4 µM. Moreover, the TGI in assay [13] is above 73.7 µM; in assay [14] it was above 72.2 µM; in assay [15], 47.9 µM; in assay [16] it was above 82.8 µM; in [17] it was 27.9 µM; in [18] it was 34.8 µM. Moreover, in assay [19], the TGI amounted to 28.5 µM.

As to `Cc1[nH]c2nc3c(ncn3COCCO)c(=O)n2c1C(c1ccccc1)(c1ccccc1)c1ccccc1`, the TGI is 29.8 µM in assay [1]; 45.5 µM in [2]; above 52.9 µM in assay [3]; 26.4 µM in assay [4]; 29.4 µM in [5]; 28.6 µM in [6]. The TGI is above 100 µM in [7]; 31.8 µM in assay [8]; 33.3 µM in [9]; 32.2 µM in [10]; 28.4 µM in assay [11]; 24.3 µM in [12]. The TGI in assay [13] is 33 µM; in assay [14], 32.4 µM; in assay [15], 23.1 µM; in assay [16] it was 33.1 µM; in [17], 44.4 µM; in assay [18], 28.5 µM. The compound further showed a TGI in assay [19] of 31 µM.

For `O=C1Nc2ccccc2/C1=C\c1c(-c2ccccc2)nc2n1CCS2`, the TGI in assay [1] was 28.5 µM; in assay [2] it was 65.8 µM; in assay [3], above 100 µM; in assay [4] it was 34.8 µM; in assay [5], 30.2 µM; in assay [6], 91 µM. For the same compound, the TGI in [7] is 68.1 µM; in assay [8] it was above 100 µM; in assay [9] it was 87.9 µM; in assay [10], 45.5 µM; in assay [11], above 100 µM; in [12], 81 µM. Moreover, the TGI was 58.5 µM in [13]; above 100 µM in assay [14]; 66.3 µM in assay [15]; 86.9 µM in [16]; 42.3 µM in assay [17]; 37.5 µM in [18]. In [19], the TGI was determined as 81.3 µM.

With `C=CC(OC(=O)C(C)C)c1ccc(OC(=O)C(C)C)cc1` (stereo unspecified), the TGI was determined as 24 µM in assay [1]; 11.7 µM in assay [2]; 10.7 µM in [3]; 26.7 µM in assay [4]; 30.6 µM in [5]; 28.2 µM in [6]. Further, the TGI in [7] is 54.8 µM; in [8], 31.4 µM; in assay [9], 21.4 µM; in assay [10], 18.9 µM; in assay [11], 32.7 µM; in assay [12], 49.7 µM. In addition, the TGI in [13] was 30 µM; in [14], 31.4 µM; in assay [15], 51.4 µM; in [16], 62.2 µM; in assay [17] it was 21 µM; in [18] it was 5.16 µM. This compound showed a TGI in assay [19] of 27.6 µM.

On to `O=C1CCCCC1C(O)(C(F)(F)F)C(F)(F)Cl` (stereo unspecified), for which the TGI in assay [1], in assay [2], in [3], in [4], in assay [5] and in assay [6] was above 10 µM in each case. Further, the TGI in assay [7], in assay [8], in [9], in assay [10], in assay [11] and in [12] was above 10 µM throughout. The TGI in assay [13], in assay [14], in assay [15], in [16], in assay [17] and in assay [18] was above 10 µM each time. The compound further had a TGI in assay [19] above 10 µM.

Turning to `O=C(O)C1=CN(c2ccncc2)C(c2ccco2)=CC1c1ccccc1[N+](=O)[O-]` (stereo unspecified), the TGI in assay [1] is 34.3 µM; in assay [2], above 24.5 µM; in assay [3], above 100 µM; in assay [4], 3.62 µM; in assay [5], above 49.6 µM; in [6], 27.8 µM. Also, the TGI is above 69.8 µM in assay [7]; 27.7 µM in assay [8]; 23.4 µM in [9]; 4.15 µM in assay [10]; 5.98 µM in assay [11]; 14 µM in assay [12]. Further, the TGI is 29.1 µM in assay [13]; 54.8 µM in [14]; 29.1 µM in [15]; 25.9 µM in assay [16]; above 100 µM in [17]; 3.4 µM in assay [18]. This compound showed a TGI in assay [19] of 32.9 µM.

Consider `COC(=O)[C@H](COC(C)(C)C)NC(=O)N[C@H](C)c1ccccc1`, for which the TGI in assay [1], in assay [2], in [3], in assay [4], in assay [5] and in [6] was above 100 µM throughout. The TGI in assay [7], in assay [8], in assay [9], in assay [10], in assay [11] and in [12] was above 100 µM each time. In addition, the TGI in [13], in assay [14], in assay [15], in [16], in [17] and in assay [18] was above 100 µM throughout. The same compound had a TGI in [19] above 100 µM.

Turning to `CCCn1c(=O)c2nn3c(=O)n(CCC)c(=O)c3nn2c1=O`, the TGI in assay [1], in [2], in [3], in assay [4], in assay [5] and in assay [6] was above 100 µM each time. In addition, the TGI in assay [7], in assay [8], in assay [9], in assay [10], in [11] and in assay [12] was above 100 µM in each case. Further, the TGI in assay [13], in assay [14], in assay [15], in [16], in [17] and in [18] was above 100 µM in each case. In assay [19], the TGI is above 100 µM.
